Measurements published in patent US12631626B2, “Continuous real-time monitoring of biomolecules in live subjects” (priority 2020, dated 2026).

Experiment: Glucose measurement (RTCM and glucose meter) in an awake diabetic rat after insulin injection
Format: in vivo
Settings: conscious diabetic rat, after 40 minutes, same amount of insulin as in anesthetized rats
Description: FIGS. 6A-6B show glucose and insulin measurements in an awake diabetic rat. An awake diabetic rat was injected with human insulin, with blood samples collected at t=0, 5, 20, and 40 min after injection. Glucose levels were measured using RTCM and glucose meter (FIG. 6A), and insulin levels were measured using RTCM and ELISA (FIG. 6B).
Male Sprague Dawley rats (Charles River) were used for experiments. Animal studies were performed in accordance with the guidelines for the care and use of laboratory animals; all protocols were approved by the Stanford Institutional Animal Care and Use Committee. The protocol used for STZ induction adapted from the protocol by Kenneth K. Wu and Youming Huan (Wu, K. K., & Huan, Y. Streptozotocin-induced diabetic models in mice and rats. Curr. Protoc. Pharmacol. 5, 1-14 (2008)). Briefly, male Sprague Dawley rats 160-230 g (8-10 weeks) were weighed and fasted 6-8 hours prior to treatment with STZ. STZ was diluted to 10 mg/mL in the sodium citrate buffer immediately before injection. STZ solution was injected intraperitoneally at 65 mg/kg into each rat. Rats were provided with water containing 10% sucrose for 24 hours after injection with STZ. Rat blood glucose levels were tested for hyperglycemia daily after the STZ treatment via tail vein blood collection using a handheld Bayer Contour Next glucose monitor (Bayer). […]

## insulin: human insulin injected into an awake diabetic rat, same amount as in anesthetized rats; probably Humulin R
  Decrease in glucose level: 7 mM
